System: trypsin
Assay: Petri plate assay detecting zones of protease protection by protease inhibitors or bacterial strains after flooding with trypsin
Type: biochemical
Details: for relative size of zone of inhibition (diffusion zone): casein plates, to a lesser degree gelatin plates, compared among leupeptin, aprotinin and α-2-macroglobulin
Excerpt: Because the protocol is destructive to the plate assayed, a duplicate or replica plate is generated and retained for identification and further analysis of the strains using methods known to those skilled in the arts. The initial step is the exposure of the protease detection plate to a protease inhibitor or bacterial growth. Either commercially available protease inhibitor peptides or growth of bacterial strains on the protease detection plates can be detected. […] The bacterial strains Photorabdus (Xenorhabdus) luminescens strain Hm primary and secondary forms where the secondary and not the primary form is known to secrete a protease inhibitor and the other strains are negative controls (Wee et al. 2000, A new broad-spectrum protease inhibitor from the entomopathogenic bacterium Photorhabdus luminescens. Microbiology 146: 3141-3147), Citrobacter freundii (ATCC #33128), Staphylococcus aureus, S. epidermidis and Enterococcusfaecalis are allowed to grow two days at 30° C. in air.
The base media can be any microbiological media designed to facilitate the growth of cultivable microorganism; different media can be used to favor different strains as appropriate (Kreig, 1981, Chapter 8, Enrichment and Isolation, p. 112-142 in Manual of Methods for General Bacteriology, Gerhardt et al., eds, American Society for Microbiology, Washington, D.C.). Variations on the type of protease being targeted, the protease substrate and cognate inhibitors are shown in Table 1 and used as a guide in the modification of media. A casein base media based on that of Vijayaraghavan and Vincent (2013, A simple method for the detection of protease activity on agar plates using bromochresol green dye, J. Biochem. Tech. 4: 628-630), which contained 5 grams of peptone, 1.5 grams of yeast extract, 1.5 grams of sodium chloride per liter with, except that the casein 0.5% is used (instead of 1.0%) and dissolved as described by Montville (1983, Dual-substrate plate diffusion assay for proteases, Appl Environ Microbiol 45: 200-204) using 0.02 N NaOH. When bromochresol green (BCG) is added directly to the media, 0.0015% is used. BCG preincorporated into the media as well as post incubation addition of a BCG dye reagent containing 0.028% BCG dissolved in 0.56% (w/v) succinic acid, 0.1% (w/v) NaOH (Vijayaraghavan and Vincent; 2013) with 0.6% Brij-35 and then acidified to pH 4.2 can also be used following exposure to a protease inhibitor or bacterial growth and subsequent exposure to a protease. After staining and then destaining in water the by completely removing the agar from the lower plastic, the plates are observed for the presence and absence of protein. Ponseau S staining by flooding the plate with 5 ml of the stain containing 0.1% Ponseau S (PS; Sigma, St. Louis, Mo.) and 5% acetic acid in water for 1-2 hrs and then marking the agar with a 23 ga syringe needle dipped in India ink at a corresponding register marked on the plastic petri plate, removing the agar from the plate and destaining overnight in water before observing them and is highly sensitive.
A gelatin based media (Medina and Baresi 2007, Rapid identification of gelatin and casein hydrolysis using TCA, J Microbiol Meth 69: 391-393) which uses 40 grams per liter of tryptic soy agar powder without glucose (Becton Dickinson, Sparks, Md.) modified to contain 8 g of gelatin (instead of 16 g) per liter may be preferable for certain organisms depending upon their growth requirements and is used as is appropriate. Approximately 5 ml of 20% trichloroacetic acid (TCA; Thermo Fisher, Waltham, Mass.) was used for protein precipitation per petri plate. This media can also be combined with preincorporated BCG, or post-incubation BCG dye reagent or Ponseau S, each as described above for the casein plates. […]

[1] = BCG-containing plates further stained with PS, 0.625 mg/ml trypsin for casein, 0.0625 mg/ml for gelatin (FIG. 2B)
[2] = casein plates with preincorporated BCG, before PS staining (FIG. 2A)

| Molecule | visualization of zone of protease protection [1] | visualization of zone of protease protection [2] | relative size of zone of inhibition (diffusion zone) | diffusion distance of inhibitor on plate (casein BCG plate, PS stained (FIGS. 5A and 5B)) |
| --- | --- | --- | --- | --- |
| aprotinin [Aprotonin] | able to visualize | faintly visualize | – | – |
| CC(C)C[C@H](NC(=O)[C@@H](O)[C@H](N)Cc1ccccc1)C(=O)O [bestatin] | no staining | – | – | – |
| CC(=O)N[C@@H](CC(C)C)C(=O)N[C@@H](CC(C)C)C(=O)N[C@H](C=O)CCCNC(=N)N [Leupeptin, leupeptin] | able to visualize | – | notably larger | – |
| α-2-macroglobulin (protein, UniProt P01023 24-1474, looked up) Alpha-2-macroglobulin: SVSGKPQYMVLVPSLLHTETTEKGCVLLSYLNETVTVSASLESVRGNRSLFTDLEAENDVLHCVAFAVPKSSSNEEVMFLTVQVKGPTQEFKKRTTVMVKNEDSLVFVQTDKSIYKPGQTVKFRVVSMDENFHPLNELIPLVYIQDPKGNRIAQWQSFQLEGGLKQFSFPLSSEPFQGSYKVVVQKKSGGRTEHPFTVEEFVLPKFEVQVTVPKIITILEEEMNVSVCGLYTYGKPVPGHVTVSICRKYSDASDCHGEDSQAFCEKFSGQLNSHGCFYQQVKTKVFQLKRKEYEMKLHTEAQIQEEGTVVELTGRQSSEITRTITKLSFVKVDSHFRQGIPFFGQVRLVDGKGVPIPNKVIFIRGNEANYYSNATTDEHGLVQFSINTTNVMGTSLTVRVNYKDRSPCYGYQWVSEEHEEAHHTAYLVFSPSKSFVHLEPMSHELPCGHTQTVQAHYILNGGTLLGLKKLSFYYLIMAKGGIVRTGTHGLLVKQEDMKGHFSISIPVKSDIAPVARLLIYAVLPTGDVIGDSAKYDVENCLANKVDLSFSPSQSLPASHAHLRVTAAPQSVCALRAVDQSVLLMKPDAELSASSVYNLLPEKDLTGFPGPLNDQDNEDCINRHNVYINGITYTPVSSTNEKDMYSFLEDMGLKAFTNSKIRKPKMCPQLQQYEMHGPEGLRVGFYESDVMGRGHARLVHVEEPHTETVRKYFPETWIWDLVVVNSAGVAEVGVTVPDTITEWKAGAFCLSEDAGLGISSTASLRAFQPFFVELTMPYSVIRGEAFTLKATVLNYLPKCIRVSVQLEASPAFLAVPVEKEQAPHCICANGRQTVSWAVTPKSLGNVNFTVSAEALESQELCGTEVPSVPEHGRKDTVIKPLLVEPEGLEKETTFNSLLCPSGGEVSEELSLKLPPNVVEESARASVSVLGDILGSAMQNTQNLLQMPYGCGEQNMVLFAPNIYVLDYLNETQQLTPEIKSKAIGYLNTGYQRQLNYKHYDGSYSTFGERYGRNQGNTWLTAFVLKTFAQARAYIFIDEAHITQALIWLSQRQKDNGCFRSSGSLLNNAIKGGVEDEVTLSAYITIALLEIPLTVTHPVVRNALFCLESAWKTAQEGDHGSHVYTKALLAYAFALAGNQDKRKEVLKSLNEEAVKKDNSVHWERPQKPKAPVGHFYEPQAPSAEVEMTSYVLLAYLTAQPAPTSEDLTSATNIVKWITKQQNAQGGFSSTQDTVVALHALSKYGAATFTRTGKAAQVTIQSSGTFSSKFQVDNNNRLLLQQVSLPELPGEYSMKVTGEGCVYLQTSLKYNILPEKEEFPFALGVQTLPQTCDEPKAHTSFQISLSVSYTGSRSASNMAIVDVKMVSGFIPLKPTVKMLERSNHVSRTEVSSNHVLIYLDKVSNQTLSLFFTVLQDVPVRDLKPAIVKVYDYYETDEFAIAEYNAPCSKDLGNA | able to visualize | faintly visualize | smallest diffusion zone | diffused only a short distance |

From patent US10828350B1, “Topical and orally administered protease inhibitors and bacterial vectors for the treatment of disorders and methods of treatment” (priority 2014, dated 2020)
